The nature of series [1]: Appearance of solid samples stored at ambient temperatures over time. In kind it is physicochemical. The following applies: ambient storage. The source says: (§1) Samples of the materials were stored at ambient temperatures and the appearance of the samples and the mass thereof were noted over time.
For series [2] the following is noted: solid form of the commercially available material; cited from earlier work.
Series [3] can be described thus: Increase in mass of solid samples stored at ambient temperatures over time. The following applies: ambient storage. In kind it is physicochemical.
From the text: as §1

`O=C1CCC(=O)ON2CCN(O1)OC(=O)CCC(=O)O2.[Na].[Na].[Na]` [Na3EDDS, trisodium ethylenediamine disuccinate]: in series [1] (2 h), the “Appearance (2 h), printed in the column after 24 hr” value is on record as “Sticky solid”. In addition, the “Appearance after 48 hr” value in series [1] (48 hr) was “Very stick”. Moreover, the “Appearance after 72 hr” value in series [1] (72 hr) is listed as “Very sticky”. Besides, the “Initial Appearance” value in series [1] (initial) is “Free flowing”. The “hygroscopicity of the solid form” value in series [2] is recorded as “very hygroscopic”. Besides, the “% increase in mass after 2 h” value in series [3] (2 h) is 7.4%. Besides, the “% increase in mass after 4 h” value in series [3] (4 h) is 8.9%. Moreover, in series [3] (72 h), the “% increase in mass after 72 h” value was determined as 25%.

These data come from patent US8628683B2 (Innospec Limited, priority 2007, dated 2014).
